Read-outs that look alike come from different tables or passages of the source.
Assays:
integrin αvβ3 = target: T1, integrin αvβ3 (Homo sapiens, UniProt P05106+P06756); assay: competitive cell binding assay using ^125I-echistatin on U87MG cells; settings: for receptor binding multivalent enhancement ratio (MVE): IC50 of RGD monomer divided by IC50 of RGD multimer
T1 construct: evaluated using U87MG cells (integrin αvβ3-positive); endogenous in cells; host or cells: U87MG human glioblastoma cells (ATCC)
Procedure: Experiments were performed on U87MG human glioblastoma cells with triplicate samples as previously reported.
In vitro integrin αvβ3-binding affinities and specificities of RGD4, PRGD4 and FPRGD4 were assessed via displacement cell binding assays using ^125I-echistatin as the integrin αvβ3-specific radioligand. Experiments were performed on U87MG human glioblastoma cells by the method previously described (J Nucl Med. 2005;46:1707-1718 J Nucl Med. 2006;47:1172-1180, which is incorporated herein by reference for the corresponding discussion). […] Experiments were performed with triplicate samples.
Experiments were performed with triplicate samples.
In vitro integrin-binding affinity and specificity of RGD multimers and DOTA-RGD multimers were assessed via competitive cell binding assays using ^125I-echistatin as the integrin αvβ3-specific radioligand (J Nucl Med. 2005;46:1707-1718, which is incorporated herein by reference for the corresponding discussion). […] Experiments were performed with triplicate samples.

U87MG cells = assay: cell adhesion assay on vitronectin coated plates; assay type: cell-based, human; settings: for anti-adhesion multivalent enhancement ratio (MVE): IC50 of RGD monomer divided by IC50 of RGD multimer
Procedure: Ninety-six well plates were coated with 2 μg/mL of fibronectin or vitronectin (Sigma-Aldrich) in PBS at 4° C. overnight and treated with 2% bovine serum albumin (BSA) for 1 h at 37° C. U87MG cells (human glioblastoma, ATCC; 2×10^5 cells/mL) with various concentrations of RGD multimers (50 nM, 200 nM, 800 nM) in 100 μL serum-free Dulbecco's modified Eagle's medium (DMEM) containing 0.1% BSA were incubated for 20 min at 37° C. The resulting mixture was added to the plates and incubated for 1 h at 37° C. Plates treated with BSA only were used as negative control. After removal of the medium by aspiration, 0.04% crystal violet solution was added and incubated for 10 min at room temperature. The wells were washed three times with PBS and 20 μL Triton X-100 were added for permeabilization. Distilled water (80 μL) was then added and the number of adherent cells was assessed with a microplate reader (Tecan; measurement wavelength: 550 nm; reference wavelength: 630 nm).

in vivo = settings: mouse, iv, 3.7 MBq, total radioactivity, U87MG tumor uptake
Procedure: (§1) PET scans and image analysis were performed using a microPET R4 rodent model scanner (Siemens Medical Solutions) as previously reported (J Nucl Med 2006;47:113-121 and J Nucl Med 2005;46:1707-1718, each of which is incorporated herein by reference for the corresponding discussion). Each mouse was tail-vein injected with about 3.7 MBq (100 μCi) of ^18F-FPRGD2 under isoflurane anesthesia. The 30-min dynamic scan (1×30 s, 4×1 min, 1×1.5 min, 4×2 min, 1×2.5 min, 4×3 min, total of 15 frames) was started 1 min after injection. Five min static PET images were also acquired at 1 h and 2 h post-injection (p.i.). The images were reconstructed by a 2-dimensional ordered-subsets expectation maximum (OSEM) algorithm and no correction was applied for attenuation or scatter.
(§2) PET scans and image analysis were performed using a microPET R4 rodent model scanner (Siemens Medical Solutions) as previously reported. For U87MG tumor model, mice (n=3) were tail-vein injected with about 3.7 MBq (100 μCi) of ^18F-FPRGD4 under isoflurane anesthesia and then subjected to a 30-min dynamic scan (1×30 s, 4×1 min, 1×1.5 min, 4×2 min, 1×2.5 min, 4×3 min, total of 15 frames) starting from 1 min p.i. Five min static PET images were also acquired at 1, 2, and 3 h p.i. The images were reconstructed by 2-dimensional ordered-subsets expectation maximum (OSEM) algorithm. No attenuation or scatter correction was applied. […] The 5-min static PET scans was then acquired at 30 min and 1 h p.i. Multiple time point static scans were also obtained for orthotopic MDA-MB-435, c-neu oncomouse, and subcutaneous DU145 tumor models after tail-vein injected with 3.7 MBq of ^18F-FPRGD4.
(§3) For each microPET scan, regions of interest (ROIs) were drawn over the tumor, normal tissue, and major organs by using vendor software (ASI Pro 5.2.4.0) on decay-corrected whole-body coronal images. The maximum radioactivity concentration (accumulation) within a tumor or an organ was obtained from mean pixel values within the multiple ROI volume, which were converted to counts/mL/min by using a conversion factor. Assuming a tissue density of 1 g/mL, the ROIs were converted to counts/g/min and then divided by the administered activity to obtain an imaging ROI-derived % ID/g. […]
(§4) PET scans and image analysis were performed using a microPET R4 rodent model scanner (Siemens Medical Solutions) as previously reported (J Nucl Med. 2005;46:1707-1718 and J Nucl Med. 2006;47:113-121, each of which is incorporated herein by reference for the corresponding discussion). About 9.3 MBq of ^64Cu-DOTA-RGD multimer was intravenously injected into each mouse under isoflurane anesthesia. Five minute static scans were acquired at 30 min, 1 h, 2 h, 6 h, and 20 h p.i. The images were reconstructed by a 2-dimensional ordered-subsets expectation maximum (OSEM) algorithm and no correction was applied for attenuation and scatter. For each microPET scan, regions of interest (ROIs) were drawn over the tumor, normal tissue, and major organs on decay-corrected whole-body coronal images. The radioactivity concentration (accumulation) within a tumor was obtained from the maximum value within the multiple ROIs and then converted to % ID/g.
(§5) PET scans and image analysis were performed using a microPET R4 rodent model scanner (Siemens Medical Solutions) as previously reported (J Nucl Med. 2006;47:113-21 and J Nucl Med. 2005;46:1707-18, which is incorporated herein by reference for the corresponding discussion). […] The 60-min dynamic scan (5×1 min, 10×3 min, 5×5 min, total of 20 frames) was started 1 min after injection. A 2 h time point static scan was also acquired after the 60 min dynamic scan. Five min static PET images were also acquired separately at 30 min, 1 h and 2 h time points post-injection (p.i.) for another set of tumor-bearing mice (n=3/tracer). The images were reconstructed by a 2-dimensional ordered-subsets expectation maximum (OSEM) algorithm and no correction was necessary for attenuation or scatter correction. […]

U87MG tumor-bearing mice = assay: in vivo; settings: mouse
Procedure: as §1, §2, §3, §4, §5

[1] = mouse, in vivo
Procedure: A U87MG tumor mouse was intravenously injected with 3.7 MBq of ^18F-FPRGD2. At 1 h after injection, the mouse was sacrificed, the blood, urine, liver, kidneys, and the U87MG tumor were collected and metabolite analysis was carried out as previously reported (J Nucl Med 2006;47: 113-121 and J Nucl Med 2006;47:1172-1180, each of which is incorporated herein by reference for the corresponding discussion). In brief, blood sample was immediately centrifuged for 5 min at 13,200 rpm. Other tissues were homogenized and then centrifuged for 5 min at 13,200 rpm. The supernatant was each passed through a C18 Sep-Pak cartridge. The urine sample was directly diluted with 1 mL of PBS and passed through a C18 Sep-Pak cartridge. The cartridges were each washed with 2 mL of water and eluted with 2 mL of ACN containing 0.1% TFA. The ACN eluent was concentrated and injected onto the analytical HPLC. The eluent was collected with a fraction collector (0.5 min/fraction) and the radioactivity of each fraction was measured with the γ-counter.
The metabolic stability of ^18F-FPTA-RGD2 was evaluated in an athymic nude mouse bearing a U87MG tumor. Sixty min after intravenous injection of 2 MBq of ^18F-FPTA-RGD2, the mouse was sacrificed and relevant organs were harvested. The blood was collected and immediately centrifuged for 5 min at 13,200 rpm. Liver, kidneys and tumor were homogenized and then centrifuged for 5 min at 13,200 rpm. After removal of the supernatants, the pellets were washed with 1 mL PBS. For each sample, supernatants of both centrifugation steps of blood, liver, and kidneys were combined and passed through C18 Sep-Pak cartridges. The urine sample was directly diluted with 1 mL of PBS and passed through a C18 Sep-Pak cartridge. The cartridges were each washed with 2 mL of water and eluted with 2 mL of ACN containing 0.1% TFA. After evaporation of the solvent, the residues were redissolved in 1 mL PBS and were injected onto the analytical HPLC. The eluent was collected with a fraction collector (0.5 min/fraction) and the radioactivity of each fraction was measured with the γ-counter.

[2] = Example 4, n=3, read-out: IC50 (inhibition of ^125I-echistatin binding to U87MG cells)

N=C(N)NCCC[C@@H]1NC(=O)[C@H](CCCCNC(=O)CC[C@H](NC(=O)CC[C@H](N)C(=O)N[C@@H](CCC(=O)NCCCC[C@@H]2NC(=O)[C@@H](Cc3ccc(O)cc3)NC(=O)[C@H](CC(=O)O)NC(=O)CNC(=O)[C@H](CCCNC(=N)N)NC2=O)C(=O)NCCCC[C@@H]2NC(=O)[C@@H](Cc3ccc(O)cc3)NC(=O)[C@H](CC(=O)O)NC(=O)CNC(=O)[C@H](CCCNC(=N)N)NC2=O)C(=O)NCCCC[C@@H]2NC(=O)[C@@H](Cc3ccc(O)cc3)NC(=O)[C@H](CC(=O)O)NC(=O)CNC(=O)[C@H](CCCNC(=N)N)NC2=O)NC(=O)[C@@H](Cc2ccc(O)cc2)NC(=O)[C@H](CC(=O)O)NC(=O)CNC1=O [RGD4, E{E[c(RGDyK)]2}2]
IC50 (integrin αvβ3; Example 2, n=3, read-out: IC50 (inhibition of ^125I-echistatin binding to U87MG cells)): 39.1 ± 5.5 nM | fold higher integrin αvβ3 avidity than the RGD dimer (integrin αvβ3; Example 4): about 3 fold | IC50 (integrin αvβ3; [2]): 35 nM | receptor binding multivalent enhancement ratio (MVE) (integrin αvβ3): 5.9 | anti-adhesion multivalent enhancement ratio (MVE) (U87MG cells): 8.4 | IC50 (U87MG cells; vitronectin coated plates, n=4, read-out: calculated IC50 (inhibition of U87MG cell adhesion)): 320 nM

N=C(N)NCCC[C@@H]1NC(=O)[C@H](CCCCNC(=O)CC[C@H](NC(=O)CC[C@H](NC(=O)CC[C@H](N)C(=O)N[C@@H](CCC(=O)N[C@@H](CCC(=O)NCCCC[C@@H]2NC(=O)[C@@H](Cc3ccc(O)cc3)NC(=O)[C@H](CC(=O)O)NC(=O)CNC(=O)[C@H](CCCNC(=N)N)NC2=O)C(=O)NCCCC[C@@H]2NC(=O)[C@@H](Cc3ccc(O)cc3)NC(=O)[C@H](CC(=O)O)NC(=O)CNC(=O)[C@H](CCCNC(=N)N)NC2=O)C(=O)N[C@@H](CCC(=O)NCCCC[C@@H]2NC(=O)[C@@H](Cc3ccc(O)cc3)NC(=O)[C@H](CC(=O)O)NC(=O)CNC(=O)[C@H](CCCNC(=N)N)NC2=O)C(=O)NCCCC[C@@H]2NC(=O)[C@@H](Cc3ccc(O)cc3)NC(=O)[C@H](CC(=O)O)NC(=O)CNC(=O)[C@H](CCCNC(=N)N)NC2=O)C(=O)N[C@@H](CCC(=O)NCCCC[C@@H]2NC(=O)[C@@H](Cc3ccc(O)cc3)NC(=O)[C@H](CC(=O)O)NC(=O)CNC(=O)[C@H](CCCNC(=N)N)NC2=O)C(=O)NCCCC[C@@H]2NC(=O)[C@@H](Cc3ccc(O)cc3)NC(=O)[C@H](CC(=O)O)NC(=O)CNC(=O)[C@H](CCCNC(=N)N)NC2=O)C(=O)NCCCC[C@@H]2NC(=O)[C@@H](Cc3ccc(O)cc3)NC(=O)[C@H](CC(=O)O)NC(=O)CNC(=O)[C@H](CCCNC(=N)N)NC2=O)NC(=O)[C@@H](Cc2ccc(O)cc2)NC(=O)[C@H](CC(=O)O)NC(=O)CNC1=O [RGD octamer, E(E{E[c(RGDyK)]2}2)2]
further fold increase of integrin avidity over RGD tetramer (integrin αvβ3; Example 4): 3 fold | IC50 (integrin αvβ3; Example 4, introduction, read-out: IC50 value (αvβ3 integrin binding)): 10 nM | IC50 (integrin αvβ3; [2]): 10 nM | receptor binding multivalent enhancement ratio (MVE) (integrin αvβ3): 20.3 | anti-adhesion multivalent enhancement ratio (MVE) (U87MG cells): 25.6 | times as effective as the RGD monomer (U87MG cells; vitronectin coated plates): 27 times

N=C(N)NCCC[C@@H]1NC(=O)[C@H](CCCCNC(=S)Nc2ccc(C[C@H]3CN(CC(=O)O)CCN(CC(=O)O)CCN3CC(=O)O)cc2)NC(=O)[C@@H](Cc2ccc(O)cc2)NC(=O)[C@H](CC(=O)O)NC(=O)CNC1=O [^68Ga-NOTA-RGD1, metal not drawn]
tissue uptake at 0.5 h (in vivo; athymic nude): 1.9 ± 0.2 %ID/g | tissue uptake at 1 h (in vivo; athymic nude): 1.4 ± 0.2 %ID/g | tissue uptake at 2 h (in vivo; athymic nude): 1.1 ± 0.1 %ID/g | tissue uptake at 0.25 h (in vivo; nude): 2.35 %ID/g | tissue uptake at 0.5 h (in vivo; nude): 1.84 %ID/g | tissue uptake at 1 h (in vivo; nude): 1.47 %ID/g | tissue uptake at 2 h (in vivo; nude): 1.12 %ID/g | U87MG tumor uptake (U87MG tumor-bearing mice; iv, 3.7 MBq, 5 min): 3.24 % ID/g

^18F-FB-E[c(RGDyK)]2 [^18F-FRGD2, reference compound]
residence time for kidneys (U87MG tumor-bearing mice): 0.029 h

^18F-fluoro-PEG-triazole-E(RGDyK)2 [^18F-FPTA-RGD2]
extraction efficiency (radioactivity in the supernatant) [1]: 86-99% | non-retained fraction (activity not trapped on C18 cartridges) [1]: 1-41%

Reference: US20080267882A1, “Imaging compounds, methods of making imaging compounds, methods of imaging, therapeutic compounds, methods of making therapeutic compounds, and methods of therapy” (Stanford University, priority 2007, published 2008)
